Data on 28 compounds can be found in patent publication US20240270740A1, “INHIBITORS OF CYCLIC GMP-AMP SYNTHASE AND USES THEREOF” (Ventus Therapeutics U.S., Inc., priority 2022, published 2024).

T1 sequence (Q8N884 whole entry): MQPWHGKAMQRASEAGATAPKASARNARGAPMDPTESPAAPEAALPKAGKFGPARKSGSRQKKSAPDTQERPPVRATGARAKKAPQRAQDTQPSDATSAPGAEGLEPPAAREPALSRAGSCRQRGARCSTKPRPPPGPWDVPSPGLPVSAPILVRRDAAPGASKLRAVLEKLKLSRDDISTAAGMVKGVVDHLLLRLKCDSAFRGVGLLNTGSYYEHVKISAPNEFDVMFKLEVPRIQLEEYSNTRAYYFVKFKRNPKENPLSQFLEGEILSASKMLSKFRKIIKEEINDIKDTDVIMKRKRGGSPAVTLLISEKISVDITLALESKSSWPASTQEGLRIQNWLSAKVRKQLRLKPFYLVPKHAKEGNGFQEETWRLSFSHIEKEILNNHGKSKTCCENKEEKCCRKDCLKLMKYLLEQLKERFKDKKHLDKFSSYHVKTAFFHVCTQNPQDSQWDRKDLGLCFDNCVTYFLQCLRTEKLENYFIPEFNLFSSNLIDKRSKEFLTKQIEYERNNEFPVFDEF

In one experiment the target is T1, hcGAS (Homo sapiens, UniProt Q8N884). As to the kind of experiment: hcGAS Kinase-Glo assay (ATP depletion). The following applies: 40 nM hcGAS, 100 μM ATP, 100 μM GTP, 25 nM dsDNA, 3 h incubation. The experiment is classed as biochemical. On the procedure:
cGAS catalyzes the cyclization of ATP and GTP to produce cGAMP, which is the activating ligand of STING. Human cGAS (hcGAS) inhibition can thus be quantified by measuring how much cGAMP is formed either indirectly, by monitoring ATP-depletion as in the hcGAS Kinase-Glo assay (as described below), or directly, such as using the hcGAS LCMS assay (as described below).
(i) hcGAS Kinase-Glo Assay
Compounds were tested for their human-cGAS […] inhibition activity using the methodology reported in Lama et al., “Development of human cGAS-specific small molecule inhibitors for repression of dsDNA-triggered interferon expression”, Nature Communications 10, Article number: 2261 (2019), with slight changes to some conditions as shown in Table B.
The results of the assay, expressed in IC50 values, are reported in Table D with the following designations: A represents an IC50 value<0.01 μM; B represents an IC50 value≥0.01 μM and <0.03 μM; C represents an IC50 value≥0.03 μM and <0.1 μM; D represents an IC50 value≥0.1.
(In general: In Kinase-Glo more light means more ATP remaining.)
As to `COc1c(N2CC[C@H](CO)C2)cc(C(=O)Nc2nnc(-n3nccc3C)s2)oc1=O` [Compound 58, (S)-4-(3-(hydroxymethyl)pyrrolidin-1-yl)-3-methoxy-N-(5-(5-methyl-1H-pyrazol-1-yl)-1,3,4-thiadiazol-2-yl)-2-oxo-2H-pyran-6-carboxamide], the IC50 fell in the range of 10 to 30 nM.
With `COc1c(NCCN)cc(C(=O)Nc2nnc(-n3nccc3C)s2)oc1=O` [Compound 203, 4-((2-aminoethyl)amino)-3-methoxy-N-(5-(5-methyl-1H-pyrazol-1-yl)-1,3,4-thiadiazol-2-yl)-2-oxo-2H-pyran-6-carboxamide], the IC50 was ≥ 100 nM.
Same read-out and setting: the result for `COc1c(N[C@H]2C[C@H](OC)C2)cc(C(=O)Nc2nnc(-n3nccc3C)s2)oc1=O` [Compound 69, 3-methoxy-4-(((1,3-trans)-3-methoxycyclobutyl)amino)-N-(5-(5-methyl-1H-pyrazol-1-yl)-1,3,4-thiadiazol-2-yl)-2-oxo-2H-pyran-6-carboxamide] reads 10 to 30 nM; that for `CNc1cc(C(=O)Nc2nnc(-n3nccc3C)s2)oc(=O)c1OC` [Compound 105, 3-methoxy-N-(5-(5-methyl-1H-pyrazol-1-yl)-1,3,4-thiadiazol-2-yl)-4-(methylamino)-2-oxo-2H-pyran-6-carboxamide], 30 to 100 nM.
Same read-out and setting: next, `COCC12CC(Nc3cc(C(=O)Nc4nnc(-n5nccc5C)s4)oc(=O)c3OC)(C1)C2` [Compound 44, 3-methoxy-4-((3-(methoxymethyl)bicyclo[1.1.1]pentan-1-yl)amino)-N-(5-(5-methyl-1H-pyrazol-1-yl)-1,3,4-thiadiazol-2-yl)-2-oxo-2H-pyran-6-carboxamide]: 30 to 100 nM; `COc1c(N2CC[C@@H](CO)C2)cc(C(=O)Nc2nnc(-n3nccc3C)s2)oc1=O` [Compound 88, (R)-4-(3-(hydroxymethyl)pyrrolidin-1-yl)-3-methoxy-N-(5-(5-methyl-1H-pyrazol-1-yl)-1,3,4-thiadiazol-2-yl)-2-oxo-2H-pyran-6-carboxamide]: 10 to 30 nM.

For the next experiment, the target named is T1, hcGAS. As to the kind of experiment: hcGAS LCMS assay (direct measurement of cGAMP production). Type of experiment: biochemical. Particulars: 0.5 nM hcGAS, 100 μM ATP, 100 μM GTP, 25 nM dsDNA, 4 h incubation. An outline of the steps: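 Direct LC/MS readout of cGAMP formed: 4-h enzyme–substrate incubation with compound, stopped by acetonitrile/water quench carrying isotope-labelled cGAMP (0.15 mM) as standard. Potency reported as IC50 ranges.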
On to `COC[C@@H](Nc1cc(C(=O)Nc2nnc(-n3nccc3C)s2)oc(=O)c1OC)C1CC1` (single isomer, unassigned) [Compound 22*], for which the IC50 was < 5 nM.
On the same count and under the same terms, next, `COc1c(N[C@@H]2CCC[C@@H]2OC)cc(C(=O)Nc2nnc(-n3nccc3C)s2)oc1=O` (single isomer, unassigned) [215*]: 5 to 20 nM.
On to `COc1c(N[C@H]2CCC[C@H]2OC)cc(C(=O)Nc2nnc(-n3nccc3C)s2)oc1=O` (single isomer, unassigned) [214*], for which the IC50 is 5 to 20 nM.
The same measure, in the same setting: the result for `COc1c(N[C@@H]2CC[C@@H]2O)cc(C(=O)Nc2nnc(-c3c(Cl)ccn3C)s2)oc1=O` (single isomer, unassigned) [Compound 54] reads < 5 nM.
Same read-out and setting: next, `COC[C@H](Nc1cc(C(=O)Nc2nnc(-c3c(Cl)ccn3C)s2)oc(=O)c1OC)c1ccccc1` [Compound 213, (R)-N-(5-(3-chloro-1-methyl-1H-pyrrol-2-yl)-1,3,4-thiadiazol-2-yl)-3-methoxy-4-((2-methoxy-1-phenylethyl)amino)-2-oxo-2H-pyran-6-carboxamide]: < 5 nM; `COCCNc1cc(C(=O)Nc2nnc(-c3cscc3C#N)s2)oc(=O)c1OC` [Compound 138, N-[5-(4-cyanothiophen-3-yl)-1,3,4-thiadiazol-2-yl]-5-methoxy-4-[(2-methoxyethyl)amino]-6-oxopyran-2-carboxamide]: ≥ 200 nM; `COc1c(NC2CCC23COC3)cc(C(=O)Nc2nnc(-n3nccc3C)s2)oc1=O` (racemic) [Rac-56, 4-((2-oxaspiro[3.3]heptan-5-yl)amino)-3-methoxy-N-(5-(5-methyl-1H-pyrazol-1-yl)-1,3,4-thiadiazol-2-yl)-2-oxo-2H-pyran-6-carboxamide]: 5 to 20 nM.
The same measure, in the same setting: next, `COc1c(N[C@@H]2Cc3ccccc3[C@@H]2O)cc(C(=O)Nc2nnc(-n3nccc3C)s2)oc1=O` (racemic) [Rac-81, 4-(((1S,2R)-1-hydroxy-2,3-dihydro-1H-inden-2-yl)amino)-3-methoxy-N-(5-(5-methyl-1H-pyrazol-1-yl)-1,3,4-thiadiazol-2-yl)-2-oxo-2H-pyran-6-carboxamide]: ≥ 200 nM; `COc1c(N[C@@H]2CC[C@@H]2OC)cc(C(=O)Nc2nnc(-c3c(Cl)ccn3C)s2)oc1=O` (single isomer, unassigned) [Compound 132*]: 5 to 20 nM.
The compound `COCCOc1c(NC23CC(C2)C3)cc(C(=O)Nc2nnc(-n3nccc3N)s2)oc1=O` [Compound 210, N-(5-(5-amino-1H-pyrazol-1-yl)-1,3,4-thiadiazol-2-yl)-4-(bicyclo[1.1.1]pentan-1-ylamino)-3-(2-methoxyethoxy)-2-oxo-2H-pyran-6-carboxamide] showed an IC50 of 5 to 20 nM.
Still for that read-out and setting: next, `COC[C@@H](Nc1cc(C(=O)Nc2nnc(-n3nccc3C)s2)oc(=O)c1OC)c1ccccc1` [Compound 49, (S)-3-methoxy-4-((2-methoxy-1-phenylethyl)amino)-N-(5-(5-methyl-1H-pyrazol-1-yl)-1,3,4-thiadiazol-2-yl)-2-oxo-2H-pyran-6-carboxamide]: 20 to 60 nM; `COCC(COC)Nc1cc(C(=O)Nc2nnc(-c3c(Cl)ccn3C)s2)oc(=O)c1OC` [Compound 84, N-(5-(3-chloro-1-methyl-1H-pyrrol-2-yl)-1,3,4-thiadiazol-2-yl)-4-((1,3-dimethoxypropan-2-yl)amino)-3-methoxy-2-oxo-2H-pyran-6-carboxamide]: < 5 nM; `Cc1ccnn1-c1nnc(NC(=O)c2cc3c(c(=O)o2)OCCN3[C@@H]2CCC[C@@H]2C#N)s1` [Compound 223, 1-((1R,2S)-2-cyanocyclopentyl)-N-(5-(5-methyl-1H-pyrazol-1-yl)-1,3,4-thiadiazol-2-yl)-5-oxo-1,2,3,5-tetrahydropyrano[3,4-b][1,4]oxazine-7-carboxamide]: 5 to 20 nM.
The same measure, in the same setting: the result for `Cc1ccnn1-c1nnc(NC(=O)c2cc3c(c(=O)o2)OCCN3[C@H]2CCC[C@H]2C#N)s1` [Compound 224, 1-((1S,2R)-2-cyanocyclopentyl)-N-(5-(5-methyl-1H-pyrazol-1-yl)-1,3,4-thiadiazol-2-yl)-5-oxo-1,2,3,5-tetrahydropyrano[3,4-b][1,4]oxazine-7-carboxamide] reads < 5 nM; that for `COc1c(N[C@@H]2CCC[C@@H]2OCC(F)F)cc(C(=O)Nc2nnc(-n3nccc3C)s2)oc1=O` [Compound 171, 4-(((1R, 2S)-2-(2,2-difluoroethoxy)cyclopentyl)amino)-3-methoxy-N-(5-(5-methyl-1H-pyrazol-1-yl)-1,3,4-thiadiazol-2-yl)-2-oxo-2H-pyran-6-carboxamide], 5 to 20 nM; that for `COCC(COC)Nc1cc(C(=O)Nc2nnc(-n3nccc3CO)s2)oc(=O)c1OC` [Compound 143, 4-((1,3-dimethoxypropan-2-yl)amino)-N-(5-(5-(hydroxymethyl)-1H-pyrazol-1-yl)-1,3,4-thiadiazol-2-yl)-3-methoxy-2-oxo-2H-pyran-6-carboxamide], 20 to 60 nM.
Still for that read-out and setting: next, `COc1c(N[C@H](C)[C@H](C)OC)cc(C(=O)Nc2nnc(-n3nccc3C)s2)oc1=O` [Compound 166, 3-methoxy-4-(((2R,3S)-3-methoxybutan-2-yl)amino)-N-(5-(5-methyl-1H-pyrazol-1-yl)-1,3,4-thiadiazol-2-yl)-2-oxo-2H-pyran-6-carboxamide]: < 5 nM.
Consider `COc1c(N[C@@H]2CCCC[C@H]2OC)cc(C(=O)Nc2nnc(-n3nccc3C)s2)oc1=O` [Compound 202, 3-methoxy-4-(((1R,2R)-2-methoxycyclohexyl)amino)-N-(5-(5-methyl-1H-pyrazol-1-yl)-1,3,4-thiadiazol-2-yl)-2-oxo-2H-pyran-6-carboxamide], for which the IC50 lay in the range of 5 to 20 nM.
In turn, `COc1c(N[C@@H]2COC[C@H]2OC)cc(C(=O)Nc2nnc(-n3nccc3C)s2)oc1=O` [Compound 102, 3-methoxy-4-(((3R,4S)-4-methoxytetrahydrofuran-3-yl)amino)-N-(5-(5-methyl-1H-pyrazol-1-yl)-1,3,4-thiadiazol-2-yl)-2-oxo-2H-pyran-6-carboxamide] returned an IC50 of 5 to 20 nM.
The same measure, in the same setting: next, `COC[C@@H](c1ccccc1)N1CCOc2c1cc(C(=O)Nc1nnc(-n3nccc3C)s1)oc2=O` [Compound 227, (R)-1-(2-methoxy-1-phenylethyl)-N-(5-(5-methyl-1H-pyrazol-1-yl)-1,3,4-thiadiazol-2-yl)-5-oxo-1,2,3,5-tetrahydropyrano[3,4-b][1,4]oxazine-7-carboxamide]: < 5 nM.
The same measure, in the same setting: next, `COc1c(N[C@@H]2c3ccccc3C[C@@H]2O)cc(C(=O)Nc2nnc(-n3nccc3C)s2)oc1=O` (racemic) [Rac-28, 4-(((cis)-2-hydroxy-2,3-dihydro-1H-inden-1-yl)amino)-3-methoxy-N-(5-(5-methyl-1H-pyrazol-1-yl)-1,3,4-thiadiazol-2-yl)-2-oxo-2H-pyran-6-carboxamide]: ≥ 200 nM.
On the same count and under the same terms, next, `COc1c(N[C@@H]2COC[C@@H]2OC)cc(C(=O)Nc2nnc(-n3nccc3C)s2)oc1=O` [Compound 162, 5-methoxy-4-{[(3R,4R)-4-methoxyoxolan-3-yl]amino}-N-[5-(5-methylpyrazol-1-yl)-1,3,4-thiadiazol-2-yl]-6-oxopyran-2-carboxamide]: 5 to 20 nM.

A word on the IC50: it is the concentration that inhibits the measured activity by half. A low value points to higher potency.
